The test system of data set [1] is Bacillus subtilis ATCC 6633. In words: Minimum growth inhibiting concentration, Japan Chemotherapeutic Society method. It is filed as cell-based. The following applies: ATCC6633; Bacillus subtilis ATCC 6633, Gram +; 5% horse blood added agar medium; read-out: Minimum Growth Inhibiting Concn. The procedure: (§1) The Antibacterial activity of the compounds of Examples 14, 13, 22b, 21 and 15 was determined in accordance with the method of Japan Chemotherapeutic Society (cf. Nippon Kagaku Ryoho Gakkai Shi, volume 29, number 1, pages 76 to 79, 1981) and the results are reported in Table 1, which follows. | *5% Horse blood added agar medium for sensitivity measurement being used.

The subject of data set [2] is Streptococcus pneumoniae Type I. Described as above. It is filed as cell-based. Conditions: Gram +, 5% horse blood added agar medium, read-out: Minimum Growth Inhibiting Concn. The procedure:
as §1

For data set [3], the system named is Streptococcus pyogenes S-23. The data set is described as above. It is filed as cell-based. The following applies: S23; Streptococcus pyogenes S-23, Gram +; 5% horse blood added agar medium; read-out: Minimum Growth Inhibiting Concn. The procedure:
as §1

Data set [4] concerns Escherichia coli NIHJ JC-2. The data set is described as above. The class given is cell-based. Conditions: NIHJJC2; Escherichia coli NIHJ JC-2, Gram -; read-out: Minimum Growth Inhibiting Concn. The procedure:
(§2) The Antibacterial activity of the compounds of Examples 14, 13, 22b, 21 and 15 was determined in accordance with the method of Japan Chemotherapeutic Society (cf. Nippon Kagaku Ryoho Gakkai Shi, volume 29, number 1, pages 76 to 79, 1981) and the results are reported in Table 1, which follows.

In another data set the test system is Proteus vulgaris DX-19. Described as above. It is filed as cell-based. Conditions: DX19; Proteus vulgaris DX-19, Gram -; read-out: Minimum Growth Inhibiting Concn. The procedure:
as §2

For data set [5], the system named is Staphylococcus aureus Smith. The description is as above. The class given is cell-based. Conditions: Gram +, read-out: Minimum Growth Inhibiting Concn. The procedure:
as §2

In another data set the test system is Proteus mirabilis 181. The description is as above. Conditions: Proteus mirabilis 181, Gram -; read-out: Minimum Growth Inhibiting Concn. It is filed as cell-based. The procedure:
as §2

The test system of data set [6] is Micrococcus luteus ATCC 9341. Described as above. It is filed as cell-based. The following applies: ATCC9341; Micrococcus luteus ATCC 9341, Gram +; read-out: Minimum Growth Inhibiting Concn. The procedure:
as §2

Data set [7] has as its system Pseudomonas maltophilia ATCC 13637. Described as above. Conditions: Stenotrophomonas maltophilia, ATCC13637; Pseudomonas maltophilia ATCC 13637, Gram -; read-out: Minimum Growth Inhibiting Concn. The class given is cell-based. The procedure: as §2
Data set [8] has as its system Serracia marcescens IFO 3736. The description is as above. The class given is cell-based. The following applies: Serracia marcescens IFO 3736, Gram -; read-out: Minimum Growth Inhibiting Concn. The procedure:
as §2

In data set [9] the test system is Klebsiella pneumoniae K-1966. Described as above. The class given is cell-based. The following applies: K1966; Klebsiella pneumoniae K-1966, Gram -; read-out: Minimum Growth Inhibiting Concn. The procedure:
as §2

Data set [10] deals with Escherichia coli KC-14. The description is as above. It is filed as cell-based. Conditions: KC14; Escherichia coli KC-14, Gram -; read-out: Minimum Growth Inhibiting Concn. The procedure: as §2
Data set [11] deals with Pseudomonas cepacia ATCC 25416. Described as above. The class given is cell-based. Conditions: Burkholderia cepacia, ATCC25416; Pseudomonas cepacia ATCC 25416, Gram -; read-out: Minimum Growth Inhibiting Concn. The procedure:
as §2

The test system of data set [12] is Staphylococcus aureus 209-PJC. The data set is described as above. It is filed as cell-based. Conditions: Gram +, read-out: Minimum Growth Inhibiting Concn. The procedure:
as §2

The test system of data set [13] is Alcaligenes faecalis ATCC 8750. Described as above. Conditions: ATCC8750; Alcaligenes faecalis ATCC 8750, Gram -; read-out: Minimum Growth Inhibiting Concn. The class given is cell-based. The procedure:
as §2

The test system of data set [14] is Listeria monocytogenes RIMD 1205020. The description is as above. It is filed as cell-based. The following applies: RIMD1205020; Listeria monocytogenes RIMD 1205020, Gram +; read-out: Minimum Growth Inhibiting Concn. The procedure:
as §2

Data set [15] deals with Pseudomonas aeruginosa E-2. The data set is described as above. It is filed as cell-based. Conditions: E2; Pseudomonas aeruginosa E-2, Gram -; read-out: Minimum Growth Inhibiting Concn. The procedure: as §2
For data set [16], the system named is Acinetobacter calcoacelicus 54. The description is as above. It is filed as cell-based. Conditions: Acinetobacter calcoacelicus 54, Gram -; read-out: Minimum Growth Inhibiting Concn. The procedure: as §2
The subject of data set [17] is Pseudomonas aeruginosa No. 12. The description is as above. It is filed as cell-based. The following applies: Pseudomonas aeruginosa No. 12, Gram -; read-out: Minimum Growth Inhibiting Concn. The procedure:
as §2

A further data set can be described thus: Acute toxicity. Conditions: mouse, in vivo; oral, groups of ten ddY male mice; read-out: 50% Lethal Doses (LD50). The procedure:
Groups of ten ddY strain male mice (body weights: 20±1 grams) of the test compound were orally administered to determine the LD50. There was […] in which many mice died when the dose was 2000 mg/kg or less.

For data set [18], the system named is Escherichia coli KC-14. In words: Mouse intraperitoneal infection, survival after one week. The class given is in vivo, ddY strain mice. The following applies: KC14, po; Escherichia coli KC-14, 5 × 10^4 per mouse; one dose per os 2 h after infection. The procedure:
(§3) ddY--Strain mice (male; body weight 20±1 grams) of SPF were innoculated with the bacteria set forth in Table 2 by administration of a supension of the bacterial in 4% mucin solution into the abdominal cavity. A compound of the invention was given one time per os two hours after the infection, and, from the survival rate after one week. 50% effective doses (ED50) were calculated by the Behrens-Karber method.

Data set [19] deals with Pseudomonas aeruginosa E-2. The description is as above. The following applies: E2, po; Pseudomonas aeruginosa E-2, 2 × 10^5 per mouse; one dose per os 2 h after infection; Behrens-Karber. It is filed as in vivo, ddY strain mice. The procedure: as §3

Each structure is given as a SMILES string. ≈ marks a conversion by molar mass, not a printed value. A value given as a limit tells only on which side of the number the result lay.

Consider `O=C(O)c1c(=O)c2cc(F)c(N3CCNCC3)cc2n2ccsc12` [Example 13, 7-fluoro-5-oxo-8(1-piperazinyl)-5H-thiazolo(3,2-a)quinoline-4-carboxylic acid], for which the MIC in [1] stood at 0.0063 µg/mL (≈ 0.0181 µM); in data set [2], 0.1 µg/mL (≈ 0.288 µM); in data set [3], 0.1 µg/mL (≈ 0.288 µM); in data set [4] it was 0.05 µg/mL (≈ 0.144 µM); in the data set on Proteus vulgaris DX-19, 0.013 µg/mL (≈ 0.0374 µM); in data set [5], 0.05 µg/mL (≈ 0.144 µM). In addition, the MIC was determined as 0.0063 µg/mL (≈ 0.0181 µM) with Proteus mirabilis 181; 0.78 µg/mL (≈ 2.25 µM) in data set [6]; 0.5 µg/mL (≈ 1.44 µM) in data set [7]; 0.2 µg/mL (≈ 0.576 µM) in data set [8]; 0.025 µg/mL (≈ 0.072 µM) in [9]; 0.0063 µg/mL (≈ 0.0181 µM) in the data set with Escherichia coli KC-14 [10]. In addition, the MIC in data set [11] is 0.78 µg/mL (≈ 2.25 µM); in [12] it was 0.025 µg/mL (≈ 0.072 µM); in data set [13], 0.78 µg/mL (≈ 2.25 µM); in [14] it was 0.2 µg/mL (≈ 0.576 µM); in [15] it was 0.2 µg/mL (≈ 0.576 µM); in [16], 0.78 µg/mL (≈ 2.25 µM). In addition, the MIC in data set [17] stood at 0.2 µg/mL (≈ 0.576 µM). In addition, the LD50 (usually the dose expected to kill half of the subjects tested) in “Acute toxicity” was above 2000 mg/kg.

Turning to `Cc1csc2c(C(=O)O)c(=O)c3cc(F)c(N4CCNCC4)cc3n12` [Example 21, 7-fluoro-1-methyl-5-oxo-8-(1-piperazinyl)-5H-thiazolo(3,2-a)-quinoline-4-carboxylic acid], the MIC in data set [1] worked out at 0.0063 µg/mL (≈ 0.0174 µM); in [2], 0.2 µg/mL (≈ 0.553 µM); in data set [3] it was 0.1 µg/mL (≈ 0.277 µM); in [4], 0.025 µg/mL (≈ 0.0692 µM); with Proteus vulgaris DX-19, 0.0016 µg/mL (≈ 0.00443 µM); in data set [5], 0.013 µg/mL (≈ 0.036 µM). For the same molecule, the MIC with Proteus mirabilis 181 was 0.05 µg/mL (≈ 0.138 µM); in [6] it was 0.39 µg/mL (≈ 1.08 µM); in [7], 0.013 µg/mL (≈ 0.036 µM); in data set [8], 0.2 µg/mL (≈ 0.553 µM); in [9] it was 0.013 µg/mL (≈ 0.036 µM); in the data set on Escherichia coli KC-14 [10], 0.0063 µg/mL (≈ 0.0174 µM). For the same molecule, the MIC in data set [11] was 0.2 µg/mL (≈ 0.553 µM); in [12], 0.025 µg/mL (≈ 0.0692 µM); in data set [13], 0.78 µg/mL (≈ 2.16 µM); in [14], 0.2 µg/mL (≈ 0.553 µM); in data set [15], 0.39 µg/mL (≈ 1.08 µM); in data set [16] it was 0.2 µg/mL (≈ 0.553 µM). The MIC in [17] stood at 0.39 µg/mL (≈ 1.08 µM). For the same molecule, the LD50 in the data set “Acute toxicity” is above 2000 mg/kg.

Take `CN1CCN(c2cc3c(cc2F)c(=O)c(C(=O)O)c2sccn23)CC1` [Example 14, 7-fluoro-8-(4-methyl-1-piperazinyl)-5-oxo-5H-thiazolo(3,2-a)-quinoline-4-carboxylic acid]: the MIC in data set [1] turned out to be 0.0063 µg/mL (≈ 0.0174 µM); in [2] it was 0.2 µg/mL (≈ 0.553 µM); in data set [3] it was 0.2 µg/mL (≈ 0.553 µM); in data set [4], 0.1 µg/mL (≈ 0.277 µM); in the data set with Proteus vulgaris DX-19 it was 0.0063 µg/mL (≈ 0.0174 µM); in [5], 0.05 µg/mL (≈ 0.138 µM). Moreover, the MIC in the data set on Proteus mirabilis 181 was found to be 0.013 µg/mL (≈ 0.036 µM); in data set [6], 0.78 µg/mL (≈ 2.16 µM); in data set [7], 0.025 µg/mL (≈ 0.0692 µM); in data set [8] it was 0.39 µg/mL (≈ 1.08 µM); in data set [9], 0.1 µg/mL (≈ 0.277 µM); in the data set on Escherichia coli KC-14 [10] it was 0.013 µg/mL (≈ 0.036 µM). The MIC in data set [11] was 0.78 µg/mL (≈ 2.16 µM); in data set [12] it was 0.1 µg/mL (≈ 0.277 µM); in data set [13] it was 0.78 µg/mL (≈ 2.16 µM); in data set [14], 1.56 µg/mL (≈ 4.32 µM); in data set [15] it was 0.39 µg/mL (≈ 1.08 µM); in [16] it was 0.39 µg/mL (≈ 1.08 µM). Moreover, in data set [17], the MIC amounted to 0.39 µg/mL (≈ 1.08 µM). Further, the values for the median effective dose (ED50) (with Escherichia coli KC-14 [18]; in data set [19]) were 1.5 mg/kg and 16 mg/kg, respectively. In addition, the LD50 in the data set “Acute toxicity” was above 2000 mg/kg.

The values above are taken from US4659734A, “Olinecarboxylic acid derivatives” (Nippon Shinyaku Co., Ltd., priority 1983, dated 1987).
